In this data set the test system is mouse liver microsomes, percent remaining, LC-MS/MS. Put plainly: Inhibitors of N370S glucocerebrosidase as a Potential Chaperone Treatment of Gaucher Disease: Metabolic Stability Profile. Conditions: at 5 µM; hits give high values. From the text:
Glucocerebrosidase (GC) catalyzes the hydrolysis of beta-glucocerebroside to glucose and ceramide in lysosomes. Mutations in the glucocerebrosidase gene result in Gaucher disease, an autosomal recessive lysosomal storage disorder. Many of the mutations encountered in patients with Gaucher disease are missense alterations that may cause misfolding, decreased stability and/or mistrafficking of this lysosomal protein. […] These inhibitors include iminosugar analogs and three non-iminosugar inhibitors identified from a previous HTS of 62,000 compounds with the wild type recombinant enzyme. After further testing a probe has been identified and was characterized though AMDE tests. Mouse liver microsomes are created through broken up endoplasmic reticulum from mouse liver. These liver microsomes contain many drug metabolizing enzymes, such as Cytochome P-450s and flavin-containing monooxygenases. […] NIH Chemical Genomics Center [NCGC] NIH Molecular Libraries Probe Production Centers Network [MLPCN] MLPCN Grant: MH086442-01 Assay Submitter (PI): Wei Zheng
5uM of compound is incubated with mouse liver microsome; the reference compounds are verapamil and warfarin. Compounds are incubated and samples are analyzed with LC-MS/MS.

As for `S=C(NCCCc1cnc[nH]1)NCCCN(Cc1ccc(Cl)c(Cl)c1)c1ccc(Br)cn1`, the percent remaining is 102%.

For the origin of these results see PubChem BioAssay AID504748 (National Center for Advancing Translational Sciences (NCATS), 2011).
